# Experimental data taken from patent US20250084080A1, “CRYSTALLINE AND SALT FORMS OF AN NLRP3 INHIBITOR” (BioAge Labs, Inc., priority 2023, published 2025).
# Experiments:
# Assay type in all cases: physicochemical
# [1] = Bulk stability (solid state, 1 week; HPLC, XRPD, IC, color); parameters: key to CL (color): A: no change of color; B: slight discoloration; C: medium discoloration; D: strong discoloration; settings: for Bulk (HPLC) Purity / Bulk (XRPD) / CL (color) / Stoichiometry by IC (Free form:HCl = 1:x): Solid state
# Experimental: Bulk stability of free form Pattern B was evaluated at 25° C./92.5% RH in an open container, at 40° C./75% RH in an open container and at 60° C. in a tight container over 1 week.
# [2] = Solubility at 37° C. in buffers and biorelevant media, XRPD of residual solid; settings: for solubility at 2 h / solubility at 24 h: thermodynamic from solid
# Experimental: Solubility of BAL-0748 free form Pattern B was investigated in pH 1.2 HCl buffer, pH 4.5 50 mM acetate buffer, pH 6.8 50 mM phosphate buffer, water, pH 1.6 FaSSGF, pH 6.5 FaSSIF-v1, pH 5.0 FeSSIF-v1 and 2% HPMC+1% Pluronic F68 in pH 4.5 50 mM acetate buffer at 37° C. for 2 h and 24 h. Residual solids after the solubility test were analyzed by XRPD.
# Solubility of the free form Pattern A, the HCl salt Pattern A, the phosphate salt Pattern A, and the sodium salt Pattern A was measured in pH 1.2 HCl buffer, pH 4.5 acetate buffer (50 mM), pH 6.8 phosphate buffer (50 mM), water, pH 1.6 FaSSGF, pH 6.5 FaSSIF-v1, pH 5.0 FeSSIF-v1, and 2% HPMC+1% Pluronic F68 in pH 4.5 acetate buffer (50 mM) at 37° C. for 2 hours and 24 hours.
# 10.4 mg of the free form Pattern A, 10.0 mg of the free form Pattern B, 10.8 mg of the HCl salt Pattern A, 12.2 mg of the phosphate salt Pattern A, or 10.5 mg of the sodium salt Pattern A was weighed into a 20 mL glass vial, respectively. 5 mL of solubility medium was added. The salt amount used was equivalent to 10 mg anhydrous free form. Obtained suspensions were stirred at 37° C. at 400 rpm and sampled at 2 hours and at 24 hours. The samples were centrifuged at 37° C. at 14,000 rpm for 5 min. Supernatants were analyzed by HPLC and PH meter for solubility and pH value, respectively. Residual solids (wet cakes) from the 24 hours samples were also characterized by XRPD to determine physical form.
# [3] = Hygroscopicity by dynamic vapor sorption (DVS) at 25° C.; settings: for Desorp. (%) / Sorp. (%): DVS 25° C.
# Experimental: Dynamic vapor sorption (DVS) was performed on an Intrinsic, Advantage or Adventure with an oven temperature of 25° C. using water as a solvent. The sample mass was about 5-10 mg using the following method: • Cycle: 40-0-95-0-40% RH • Stage Step: 10% • Equilibrium: 0.002 dm/dt (%/min) • Minimum dm/dt stability duration: 60 min • Maximum dm/dt stage time: 360 min. Hygroscopicity of free form Pattern B was evaluated by dynamic vapor sorption (DVS) test at 25° C. […] It absorbed about 0.8% water at 80% RH at 25° C.
# [4] = 25° C./92.5% RH open, 40° C./75% RH open, 60° C. tight container
# [5] = aqueous buffer, pH 4.5 acetate buffer (50 mM), 37° C.
# [6] = aqueous buffer, pH 6.8 phosphate buffer (50 mM), 37° C.
# [7] = aqueous with cosolvent or surfactant or cyclodextrin, 2% HPMC + 1% Pluronic F68 in pH 4.5 acetate buffer (50 mM), 37° C.
# [8] = fassgf or other biorelevant, FaSSGF, pH 1.6, 37° C.
# [9] = simulated gastric fluid, pH 1.2 HCl buffer, 37° C.
smiles,measurement,setting,value
"CCOc1cc(C(=O)N(C)Cc2cnc(CO)c3cn[nH]c23)ccc1-c1cc(F)cc(F)c1.Cl [HCl salt Pattern A, 2-ethoxy-3′,5′-difluoro-N-((4-(hydroxymethyl)-1H-pyrazolo[4,3-c]pyridin-7-yl)methyl)-N-methyl-[1,1′-biphenyl]-4-carboxamide hydrochloric acid salt]","Bulk stability, chemical and physical",[1]; [4],chemically and physically stable
same,Degradation by HPLC,[1]; [4],no obvious degradation
same,Form change by XRPD,[1]; [4],no form change
same,Bulk (HPLC) Purity,"[1]; 25° C./92.5% RH, open",99.1%
same,Bulk (XRPD),"[1]; 25° C./92.5% RH, open",No form change
same,CL (color),"[1]; 25° C./92.5% RH, open",A
same,Stoichiometry by IC (Free form:HCl = 1:x),"[1]; 25° C./92.5% RH, open",0.97
same,Bulk (HPLC) Purity,"[1]; 40° C./75% RH, open",98.9%
same,Bulk (XRPD),"[1]; 40° C./75% RH, open",No form change
same,CL (color),"[1]; 40° C./75% RH, open",A
same,Stoichiometry by IC (Free form:HCl = 1:x),"[1]; 40° C./75% RH, open",0.99
same,Bulk (HPLC) Purity,"[1]; 60° C., closed",98.9%
same,Bulk (XRPD),"[1]; 60° C., closed",No form change
same,CL (color),"[1]; 60° C., closed",A
same,Stoichiometry by IC (Free form:HCl = 1:x),"[1]; 60° C., closed",0.97
same,pH of supernatant at 24 h,"[2]; 2% HPMC + 1% Pluronic F68 in pH 4.5 acetate buffer (50 mM), 37° C.",(4.4)
same,Solubility compared with the free form Pattern A,[2]; 2% HPMC+1% Pluronic F68 in acetate buffer (pH 4.5),comparable solubility
same,pH of supernatant at 24 h,"[2]; FaSSGF, pH 1.6, 37° C.",(1.5)
same,pH of supernatant at 24 h,"[2]; FaSSIF-v1, pH 6.5, 37° C.",(6.3)
same,pH of supernatant at 24 h,"[2]; FeSSIF-v1, pH 5.0, 37° C.",(4.9)
same,pH of supernatant at 24 h,"[2]; Water, 37° C.",(2.5)
same,solubility at 2 h,[2]; [5],14.4 µg/mL
same,solubility at 24 h,[2]; [5],10 µg/mL
same,solubility at 2 h,[2]; [6],3.3 µg/mL
same,solubility at 24 h,[2]; [6],2.3 µg/mL
same,solubility at 2 h,[2]; [7],29.5 µg/mL
same,solubility at 24 h,[2]; [7],26.7 µg/mL
same,solubility at 2 h,[2]; [8],556 µg/mL
same,solubility at 24 h,[2]; [8],522 µg/mL
same,pH of supernatant at 24 h,"[2]; pH 1.2 HCl buffer, 37° C.",(1.2)
same,pH of supernatant at 24 h,"[2]; pH 4.5 acetate buffer (50 mM), 37° C.",(4.3)
same,Higher solubility compared with the free form Pattern A,"[2]; pH 5.0 FeSSIF-v1, 2 h",1 fold
same,pH of supernatant at 24 h,"[2]; pH 6.8 phosphate buffer (50 mM), 37° C.",(6.7)
same,Solubility compared with the free form Pattern A,[2]; pure water,obviously higher solubility
same,solubility at 2 h,[2]; [9],362 µg/mL
same,solubility at 24 h,[2]; [9],277 µg/mL
same,solubility at 2 h,"[2]; FaSSIF-v1, pH 6.5, 37° C.",11.8 µg/mL
same,solubility at 24 h,"[2]; FaSSIF-v1, pH 6.5, 37° C.",8.4 µg/mL
same,solubility at 2 h,"[2]; FeSSIF-v1, pH 5.0, 37° C.",238 µg/mL
same,solubility at 24 h,"[2]; FeSSIF-v1, pH 5.0, 37° C.",151 µg/mL
same,solubility at 2 h,"[2]; Water, 37° C.",568 µg/mL
same,solubility at 24 h,"[2]; Water, 37° C.",504 µg/mL
same,Desorp. (%),"[3]; 0% RH, 1st desorption",0.51%
same,Sorp. (%),"[3]; 0% RH, 1st sorption",0.51%
same,Desorp. (%),"[3]; 0% RH, 2nd desorption",0.15%
same,Sorp. (%),"[3]; 0% RH, 2nd sorption",0.15%
same,Desorp. (%),"[3]; 10% RH, 1st desorption",0.61%
same,Sorp. (%),"[3]; 10% RH, 1st sorption",0.61%
same,Desorp. (%),"[3]; 10% RH, 2nd desorption",0.24%
same,Sorp. (%),"[3]; 10% RH, 2nd sorption",0.20%
same,Desorp. (%),"[3]; 20% RH, 1st desorption",0.65%
same,Sorp. (%),"[3]; 20% RH, 1st sorption",0.68%
same,Desorp. (%),"[3]; 20% RH, 2nd desorption",0.28%
same,Sorp. (%),"[3]; 20% RH, 2nd sorption",0.24%
same,Desorp. (%),"[3]; 30% RH, 1st desorption",0.69%
same,Sorp. (%),"[3]; 30% RH, 1st sorption",0.78%
same,Desorp. (%),"[3]; 30% RH, 2nd desorption",0.35%
same,Sorp. (%),"[3]; 30% RH, 2nd sorption",0.27%
same,Desorp. (%),"[3]; 40% RH, 1st desorption",0.72%
same,Sorp. (%),"[3]; 40% RH, 1st sorption",0.75%
same,Desorp. (%),"[3]; 40% RH, 2nd desorption",0.42%
same,Sorp. (%),"[3]; 40% RH, 2nd sorption",0.29%
same,Sorp. (%),"[3]; 50% RH, 1st sorption",0.80%
same,Desorp. (%),"[3]; 50% RH, 2nd desorption",0.54%
same,Sorp. (%),"[3]; 60% RH, 1st sorption",0.85%
same,Desorp. (%),"[3]; 60% RH, 2nd desorption",0.68%
same,Sorp. (%),"[3]; 70% RH, 1st sorption",0.96%
same,Desorp. (%),"[3]; 70% RH, 2nd desorption",0.84%
same,Sorp. (%),"[3]; 80% RH, 1st sorption",1.00%
same,Desorp. (%),"[3]; 80% RH, 2nd desorption",1.07%
same,Sorp. (%),"[3]; 90% RH, 1st sorption",1.37%
same,Desorp. (%),"[3]; 90% RH, 2nd desorption",1.54%
same,Sorp. (%),"[3]; 95% RH, 1st sorption",2.20%
same,Desorp. (%),"[3]; 95% RH, 2nd desorption",2.20%
same,XRPD after DVS test,[3]; DVS at 25° C.,No form change
same,Water absorbed at 80% RH,"[3]; DVS at 25° C., 80% RH",It absorbed 1.0%
